This is an account of results in USRE39634E1, “Bisarylimidazoly fatty acid amide hydrolase inhibitors” (Bristol-Myers Squibb Company, priority 2001, dated 2007).

In one test the target is T1, human FAAH (Homo sapiens, UniProt O00519).
T1 construct: expressed in transfected cells; host or cells: H4 cells stably transfected with human FAAH (Geneticin selection); crude membrane homogenates
T1 sequence (O00519 1-579): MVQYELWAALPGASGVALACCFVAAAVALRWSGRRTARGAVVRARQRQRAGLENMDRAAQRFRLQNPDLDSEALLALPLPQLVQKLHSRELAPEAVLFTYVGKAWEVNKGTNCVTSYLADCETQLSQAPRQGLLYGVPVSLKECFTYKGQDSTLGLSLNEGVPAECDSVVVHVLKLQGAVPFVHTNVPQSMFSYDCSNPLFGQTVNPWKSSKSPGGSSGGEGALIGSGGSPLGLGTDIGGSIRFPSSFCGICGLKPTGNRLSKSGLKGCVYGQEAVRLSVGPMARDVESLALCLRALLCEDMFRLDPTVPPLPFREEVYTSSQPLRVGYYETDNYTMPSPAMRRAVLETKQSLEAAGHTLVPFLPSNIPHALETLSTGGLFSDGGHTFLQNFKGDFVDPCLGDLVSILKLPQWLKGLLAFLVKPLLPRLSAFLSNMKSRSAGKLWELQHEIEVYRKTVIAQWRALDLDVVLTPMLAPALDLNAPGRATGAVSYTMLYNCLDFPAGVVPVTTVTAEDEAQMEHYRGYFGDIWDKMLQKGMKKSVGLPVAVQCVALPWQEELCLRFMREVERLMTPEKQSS
The test is described as follows: Determination of FAAH activity (membrane homogenates of H4-FAAH cells, [3H]-anandamide hydrolysis). Type of test: biochemical. The conditions noted are these: transfected human FAAH, H4-FAAH cell membranes, 10 μM anandamide, room temperature, one hour. As for the experimental part:
Homogenates of crude membranes were prepared from H4 cells that express transfected human FAAH (H4-FAAH cells). Briefly, cells were grown in DMEM supplemented with 10% FBS and Geneticin at a final concentration of 500 μg/ml (Gibco BRL, Rockville, Md.). Confluent cultures of H4-FAAH cells were rinsed twice with phosphate-buffered saline [138 mM NaCl, 4.1 mM KCl, 5.1 mM Na2PO4, 1.5 mM KH2PO4 (pH 7.5), 37° C.] and incubated for 5-10 min. at 4° C. in lysis buffer [1 mM sodium bicarbonate]. Cells were transferred from plates to polypropylene tubes (16×100 mm), homogenized and centrifuged at 32,000×g for 30 min. Pellets were resuspended by homogenization in lysis buffer and centrifuged at 32,000×g for 30 min. Pellets were resuspended in lysis buffer (15-20 μg protein/ml) then stored at −80° C. until needed. On the day of an experiment, membranes were diluted to 2.67 μg protein/ml in 125 mM Tris-Cl, pH 9.0
Activity of FAAH was measured using a modification of the method described by Omeir et al., 1995 (Life Sci 56:1999, 1995). Membrane homogenates (240 ng protein) were incubated at room temperature for one hour with 1.67 nM anandamide [ethanolamine 1-^3H] (American Radiolabeled Chemical Inc., St Louis, Mo.) and 10 μM anandamide (Sigma/RBI, St. Louis, Mo.) in the absence and presence of inhibitors. The reaction was stopped by the addition of 1 volume of a solution of methanol and dichloroethane (1:1). The mixture was shaken and then centrifuged at 1000×g for 15 min. to separate the aqueous and organic phases. An aliquot of the aqueous phase, containing [^3H]-ethanolamine was withdrawn and counted by scintillation spectroscopy. Data were expressed as the percentage of [^3H]-ethanolamine formed versus vehicle, after subtraction of the background radioactivity determined in the presence of 10 μM arachidonyl trifluoromethyl ketone (ATFMK), an inhibitor of FAAH. IC50 values were determined using a four-parameter logistic equation for dose-response curves.

For test [1], the system named is animals with a neuropathic injury. As to the kind of experiment: Chung model of neuropathic pain. Type of test: in vivo. From the text: FIG. 3 illustrates results from the Chung Model used for measuring neuropathic pain. The single asterisk (*) applies when p is less than 0.05 whereas the double asterisk (**) applies when p is less than 0.01. n=9-10.
The subject of the next test is animals. The test is described as follows: Hargreaves Test (acute thermal pain). Type of test: in vivo. The conditions noted are these: FIG. 2. An excerpt:
FIG. 2 illustrates results from the Hargreaves Test used for measuring acute thermal pain. The single asterisk (*) applies when p is less than 0.05 whereas the double asterisk (**) applies when p is less than 0.01. n=6.

The test system of another test is rat. As to the kind of experiment: Rat formalin test (acute and chronic chemo-induced pain). The class given is in vivo. As for the experimental part:
FIG. 1A illustrates results from a rat formalin model used for testing acute chemo-induced pain. The single asterisk (*) applies when p is less than 0.05.
FIG. 1B illustrates results from a rat formalin model used for testing chronic chemo-induced pain. The single asterisk (*) applies when p is less than 0.05.
In FIG. 1., example 1, was active in phase I (acute phase) and phase II (chronic phase) of the rat formalin test. In animals that received 25 mg/kg, i.v, of Example 1, the number of paw flinches was reduced by nearly 40% in the first 10 minutes after administration of formalin. Paw flinches were reduced by approximately 30% over the following 50 minutes.

Broadly, the IC50 is the concentration that inhibits the measured activity by half.

Take `Cc1nc(-c2ccccc2)c(-c2ccccc2)n1CCCCCCNC(=O)Oc1ccccc1F` [Example 1, [6-(2-Methyl-4,5-diphenyl-imidazol-1-yl)-hexyl]-carbamic acid 2-fluoro-phenyl ester]: at human FAAH, the IC50 was < 10 nM. Further, the “onset of anti-neuropathic effect” value in test [1] (20 mg/kg, versus 100 mg/kg gabapentin) was “earlier onset of action compared to 100 mg/kg gabapentin”. In addition, in test [1] (light touch stimulus, FIG. 3), the “threshold for withdrawal of the injured paw” value is given as “increased (toward normal) in a dose-dependent fashion”. Further, in the test with animals, the “latency to paw withdrawal” value is given as “increased significantly”. Besides, the “reduction of number of paw flinches” value in the test on rat (25 mg/kg, i.v., first 10 minutes after administration of formalin) is reported as ~40%. Further, in the test with rat (25 mg/kg, i.v., following 50 minutes), the “reduction of paw flinches” value is reported as “approximately 30%”. Besides, the “activity in phase I (acute phase) and phase II (chronic phase) of the rat formalin test” value with rat (FIG. 1) is listed as “active”.
Turning to `Cc1nc(-c2ccc(F)cc2)c(-c2ccc(F)cc2)n1CCCCCCNC(=O)Oc1c(F)cccc1F` [Example 44, {6-[4,5-Bis-(4-fluoro-phenyl)-2-methyl-imidazol-1-yl]-hexyl}-carbamic acid 2,6-difluoro-phenyl ester], the half-inhibitory concentration (IC50) against human FAAH was 10 to 100 nM.
The molecule `Cc1nc(-c2ccccc2)c(-c2ccccc2)n1CCCCCNC(=O)Oc1ccc(F)cc1` [Example 32, [5-(2-Methyl-4,5-diphenyl-imidazol-1-yl)-pentyl]-carbamic acid 4-fluoro-phenyl ester] returned a half-maximal inhibitory concentration (IC50) against human FAAH of 10 to 100 nM.
At human FAAH, `Cc1nc(-c2ccccc2)c(-c2ccccc2)n1CCCCCNC(=O)Oc1ccccc1` [Example 31, [5-(2-Methyl-4,5-diphenyl-imidazol-1-yl)-pentyl]-carbamic acid phenyl ester] had a concentration for half-maximal inhibition (IC50) of 10 to 100 nM.
On to `Cc1nc(-c2ccccc2)c(-c2ccccc2)n1CCCCCCNC(=O)Oc1ccc(C#N)cc1` [Example 15, [6-(2-Methyl-4,5-diphenyl-imidazol-1-yl)-hexyl]-carbamic acid 4-cyano-phenyl ester], for which the 50% inhibitory concentration (IC50) against human FAAH was in the range of 10 to 100 nM.
For `COc1cccc(OC)c1OC(=O)NCCCCCCn1c(C)nc(-c2ccccc2)c1-c1ccccc1` [Example 16, [6-(2-Methyl-4,5-diphenyl-imidazol-1-yl)-hexyl]-carbamic acid 2,6-dimethoxy-phenyl ester], at human FAAH, the 50% inhibitory concentration (IC50) was in the range of 100 to 1000 nM.
Same read-out and setting: as for `Cc1nc(-c2ccccc2)c(-c2ccccc2)n1CCCOc1ccc(NC(=O)Oc2ccccc2)cc1` [Example 63, {4-[3-(2-Methyl-4,5-diphenyl-imidazol1-yl)-propoxy]-phenyl}-carbamic acid phenyl ester], the figure is 1000 to 10000 nM.
The same measure, in the same setting: the result for `COc1ccc(OC(=O)Nc2ccc(OCCn3c(C)nc(-c4ccccc4)c3-c3ccccc3)cc2)cc1` [Example 64, {4-[2-(2-Methyl-4,5-diphenyl-imidazol-1-yl)-ethoxy]-phenyl}-carbamic acid 4-methoxy-phenyl ester] reads 1000 to 10000 nM.
Regarding `Cc1nc(-c2ccccc2)c(-c2ccccc2)n1CCCCCCNC(=O)Oc1ccccc1` [Example 9], at human FAAH, the concentration for half-maximal inhibition (IC50) was < 10 nM.
On to `COc1ccccc1OC(=O)NCCCCCCn1c(C)nc(-c2ccccc2)c1-c1ccccc1` [Example 17, [6-(2-Methyl-4,5-diphenyl-imidazol-1-yl)-hexyl]-carbamic acid 2-methoxy-phenyl ester], for which the half-inhibitory concentration (IC50) at human FAAH was in the range of 100 to 1000 nM.
On to `Cc1nc(-c2ccccc2)c(-c2ccccc2)n1CCOc1ccc(NC(=O)Oc2ccccc2F)cc1` [Example 61, {4-[2-(2-Methyl-4,5-diphenyl-imidazol-1-yl)-ethoxy]-phenyl}-carbamic acid 2-fluoro-phenyl ester], for which the concentration for half-maximal inhibition (IC50) at human FAAH lay in the range of 1000 to 10000 nM.
Same read-out and setting: the result for `Cc1nc(-c2ccccc2)c(-c2ccccc2)n1CCCCCCNC(=O)Oc1ccc(F)c(F)c1` [Example 41, [6-(2-Methyl-4,5-diphenyl-imidazol-1-yl)-hexyl]-carbamic acid 3,4-difluoro-phenyl ester] reads < 10 nM; that for `Cc1nc(-c2ccccc2)c(-c2ccccc2)n1CCCCCCNC(=O)Oc1ccc(F)cc1` [Example 10, [6-(2-Methyl-4,5-diphenyl-imidazol-1-yl)-hexyl]-carbamic acid 4-fluoro-phenyl ester], < 10 nM; that for `Cc1nc(-c2ccccc2)c(-c2ccccc2)n1CCCCCCCNC(=O)Oc1ccc(F)cc1` [Example 21, [7-(2-Methyl-4,5-diphenyl-imidazol-1-yl)-heptyl]-carbamic acid 4-fluoro-phenyl ester], 10 to 100 nM.
As to `Cc1nc(-c2ccccc2)c(-c2ccccc2)n1CCCCCNC(=O)Oc1ccc(Cl)cc1` [Example 35, [5-(2-Methyl-4,5-diphenyl-imidazol-1-yl)-pentyl]-carbamic acid 4-chloro-phenyl ester], on human FAAH, the half-maximal inhibitory concentration (IC50) lay in the range of 10 to 100 nM.
In turn, `Cc1nc(-c2ccccc2)c(-c2ccccc2)n1CCCOc1ccc(NC(=O)Oc2ccccc2F)cc1` [Example 66, {4-[3-(2-Methyl-4,5-diphenyl-imidazol-1-yl)-propoxy]-phenyl}-carbamic acid 2-fluoro-phenyl ester] displayed a half-inhibitory concentration (IC50) on human FAAH of 1000 to 10000 nM.
Turning to `Cc1nc(-c2ccccc2)c(-c2ccccc2)n1CCCCCNC(=O)Oc1ccc(C#N)cc1` [Example 38, [5-(2-Methyl-4,5-diphenyl-imidazol-1-yl)-pentyl]-carbamic acid 4-cyano-phenyl ester], the IC50 on human FAAH lay in the range of 10 to 100 nM.
Take `Cc1nc(-c2ccccc2)c(-c2ccccc2)n1CCOc1ccc(NC(=O)Oc2ccccc2)cc1` [Example 60, {4-[2-(2-Methyl-4,5-diphenyl-imidazol-1-yl)-ethoxy]-phenyl}-carbamic acid phenyl ester]: on human FAAH, the IC50 lay within 1000 to 10000 nM.
Same read-out and setting: as for `CCc1nc(-c2ccccc2)c(-c2ccccc2)n1CCCCCCNC(=O)OC(C)(C)C` [Example 2, [6-(2-Ethyl-4,5-diphenyl-imidazol-1-yl)-hexyl]-carbamic acid tert-butyl ester], the figure is 1000 to 10000 nM; as for `Cc1nc(-c2ccccc2)c(-c2ccccc2)n1CCCCCCCNC(=O)Oc1ccc(C#N)cc1` [Example 27, [7-(2-Methyl-4,5-diphenyl-imidazol-1-yl)-heptyl]-carbamic acid 4-cyano-phenyl ester], < 10 nM.
Molecule `Cc1nc(-c2ccccc2)c(-c2ccccc2)n1CCOc1ccc(NC(=O)Oc2ccc(Cl)cc2)cc1` [Example 53, {4-[2-(2-Methyl-4,5-diphenyl-imidazol-1-yl)-ethoxy]-phenyl}-carbamic acid 4-chloro-phenyl ester] came in with an IC50 at human FAAH of 1000 to 10000 nM.
In the case of `COC(=O)NCCCCCCn1c(C)nc(-c2ccccc2)c1-c1ccccc1` [Example 8, [6-(2-Methyl-4,5-diphenyl-imidazol-1-yl)-hexyl]-carbamic acid methyl ester], the IC50 on human FAAH lay within 100 to 1000 nM.
On human FAAH, `CCOC(=O)NCCCCCCn1c(C)nc(-c2ccccc2)c1-c1ccccc1` [Example 45, [6-(2-Methyl-4,5-diphenyl-imidazol-1-yl)-hexyl]-carbamic acid ethyl ester] showed an IC50 of 100 to 1000 nM.
